Source: ChEMBL document CHEMBL1201862, “PubChem BioAssay data set” (2004)
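Briefly, cells in 96-well plates were exposed to five compound concentrations for 48 h, and endpoints were estimated by linear interpolation. The concentration for 50% growth inhibition is given as GI50.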 The source made the active and inactive calls. Rule as the data show it: active = GI50 up to about 1.1 µM and inactive = higher.

Assays:
Assay in all cases: DTP human tumour cell line panel, 48 h
[1] = test system: TK-10
[2] = test system: MDA-MB-435
[3] = test system: Malme-3M
[4] = test system: U-251
[5] = test system: OVCAR-5
[6] = test system: SNB-75
[7] = test system: MOLT-4
[8] = test system: HCT-15
[9] = test system: K562
[10] = test system: SF-268
[11] = test system: NCI-H226
[12] = test system: M14
[13] = test system: SN12C
[14] = test system: A549
[15] = test system: OVCAR-3
[16] = test system: OVCAR-8
[17] = test system: ACHN
[18] = test system: NCI-H522
[19] = test system: SW-620
[20] = test system: UACC-257

| SMILES | GI50 [1] | GI50 [2] | GI50 [3] | GI50 [4] | GI50 [5] | GI50 [6] | GI50 [7] | GI50 [8] | GI50 [9] | GI50 [10] | GI50 [11] | GI50 [12] | GI50 [13] | GI50 [14] | GI50 [15] | GI50 [16] | GI50 [17] | GI50 [18] | GI50 [19] | GI50 [20] |
| --- | --- | --- | --- | --- | --- | --- | --- | --- | --- | --- | --- | --- | --- | --- | --- | --- | --- | --- | --- | --- |
| CC(NCc1c(O)ccc2c(-c3ccccc3)cc(=O)oc12)C(=O)O (stereo not given) | > 100 µM (inactive) | > 100 µM (inactive) | > 100 µM (inactive) | > 100 µM (inactive) | > 100 µM (inactive) | > 100 µM (inactive) | > 100 µM (inactive) | > 100 µM | > 100 µM (inactive) | > 100 µM (inactive) | > 100 µM (inactive) | > 100 µM (inactive) | > 100 µM (inactive) | > 100 µM (inactive) | > 100 µM (inactive) | > 100 µM (inactive) | > 100 µM (inactive) | > 100 µM (inactive) | > 100 µM (inactive) | > 100 µM (inactive) |
| COC(=O)c1cc(=O)nc2sc3cccc(C)c3n12 | > 100 µM (inactive) | 42 µM (inactive) | 23.9 µM (inactive) | 22.2 µM (inactive) | 38 µM (inactive) | > 100 µM (inactive) | 28.6 µM (inactive) | 43 µM | 30.3 µM (inactive) | 61.1 µM (inactive) | 18.7 µM (inactive) | 33.1 µM (inactive) | 40.6 µM (inactive) | 46.9 µM (inactive) | 23 µM (inactive) | 20.9 µM (inactive) | 20.9 µM (inactive) | 23.2 µM (inactive) | 30.3 µM (inactive) | 65 µM (inactive) |
| Cc1cc(C)c2c(O)cc(-c3ccc4ccccc4c3)nc2n1 | 31 µM (inactive) | 2.92 µM (inactive) | 21.6 µM (inactive) | 16.7 µM (inactive) | 43.8 µM (inactive) | 15.8 µM (inactive) | 3.66 µM (inactive) | 6.1 µM | 2.05 µM (inactive) | 57.3 µM (inactive) | 19.5 µM (inactive) | 17.3 µM (inactive) | 43.7 µM (inactive) | 12.5 µM (inactive) | 32.4 µM (inactive) | 39 µM (inactive) | 46 µM (inactive) | 21.4 µM (inactive) | 15.2 µM (inactive) | 21.2 µM (inactive) |
| Cc1cc2c(cc1C)C(=O)C1(C2)Cc2c(ccc(C)c2C)C1=O (stereo not given) | > 100 µM (inactive) | > 100 µM (inactive) | 98.6 µM (inactive) | > 100 µM (inactive) | > 100 µM (inactive) | 64.6 µM (inactive) | > 100 µM (inactive) | > 100 µM | > 100 µM (inactive) | 90.8 µM (inactive) | > 100 µM (inactive) | > 100 µM (inactive) | > 100 µM (inactive) | 73.6 µM (inactive) | > 100 µM (inactive) | 72.8 µM (inactive) | > 100 µM (inactive) | > 100 µM (inactive) | > 100 µM (inactive) | > 100 µM (inactive) |
| CCCCn1c2c(n(CCCC)c1=S)-c1c(n(CCCC)c(=S)n1CCCC)SSc1c(n(CCCC)c(=S)n1CCCC)-c1c(n(CCCC)c(=S)n1CCCC)SSc1c(n(CCCC)c(=S)n1CCCC)-c1c(n(CCCC)c(=S)n1CCCC)SS2 | > 30.2 µM (inactive) | 11.3 µM (inactive) | 1.57 µM (inactive) | 2.15 µM (inactive) | 9.12 µM (inactive) | 10.1 µM (inactive) | 2.32 µM (inactive) | 7.64 µM | 2.03 µM (inactive) | 5.24 µM (inactive) | 10 µM (inactive) | 13.4 µM (inactive) | 2.8 µM (inactive) | > 50 µM (inactive) | 1.87 µM (inactive) | 1.77 µM (inactive) | 2.36 µM (inactive) | 0.78 µM (active) | 1.69 µM (inactive) | 2.98 µM (inactive) |
| CCCCCNC(=O)c1cc2cc(CCl)ccc2oc1=O | 1.52 µM (inactive) | 9.27 µM (inactive) | 2.36 µM (inactive) | 9.98 µM (inactive) | 2.88 µM (inactive) | 4.44 µM (inactive) | 6.68 µM (inactive) | 1.95 µM | 5.62 µM (inactive) | 3.19 µM (inactive) | 14.2 µM (inactive) | 9.12 µM (inactive) | 1.72 µM (inactive) | 4.65 µM (inactive) | 8.02 µM (inactive) | 35.7 µM (inactive) | 2.01 µM (inactive) | 3.24 µM (inactive) | > 49.7 µM (inactive) | 2.04 µM (inactive) |
| CC(C)(C)[Si](C)(C)OCC1OC(n2cnc3c(N)ncnc32)C(O)C1O (stereo not given) | > 100 µM (inactive) | > 100 µM (inactive) | > 100 µM (inactive) | > 100 µM (inactive) | > 100 µM (inactive) | 59.8 µM (inactive) | 39.6 µM (inactive) | > 100 µM | 70.6 µM (inactive) | > 100 µM (inactive) | > 100 µM (inactive) | > 100 µM (inactive) | > 100 µM (inactive) | > 100 µM (inactive) | 76 µM (inactive) | > 100 µM (inactive) | > 100 µM (inactive) | > 100 µM (inactive) | > 100 µM (inactive) | > 100 µM (inactive) |
| COC(=O)/C=C(/C)n1nc2ccccc2n1 | > 100 µM (inactive) | > 100 µM (inactive) | > 100 µM (inactive) | > 100 µM (inactive) | > 100 µM (inactive) | > 100 µM (inactive) | > 100 µM (inactive) | > 100 µM | > 100 µM (inactive) | > 100 µM (inactive) | > 100 µM (inactive) | > 100 µM (inactive) | > 100 µM (inactive) | > 100 µM (inactive) | > 100 µM (inactive) | > 100 µM (inactive) | > 100 µM (inactive) | > 100 µM (inactive) | > 100 µM (inactive) | > 100 µM (inactive) |
| C=C1C(=O)OC2CC(C)C(/C=C/C(C)=O)=CCC12 (stereo not given) | > 100 µM (inactive) | > 100 µM (inactive) | 10.7 µM (inactive) | > 100 µM (inactive) | > 100 µM (inactive) | 2.99 µM (inactive) | 83 µM (inactive) | > 100 µM | 58.7 µM (inactive) | > 100 µM (inactive) | > 100 µM (inactive) | > 100 µM (inactive) | > 100 µM (inactive) | > 100 µM (inactive) | > 100 µM (inactive) | > 100 µM (inactive) | > 100 µM (inactive) | 29.8 µM (inactive) | 61.8 µM (inactive) | > 100 µM (inactive) |
| Cc1ccc2nc(/C=N/c3ccc(Cl)cc3)cc(C)c2c1 | 2.9 µM (inactive) | 1.04 µM (active) | 2.44 µM (inactive) | 8.47 µM (inactive) | 3.67 µM (inactive) | 17 µM (inactive) | 1.12 µM (inactive) | 0.027 µM | 0.147 µM (active) | 14.7 µM (inactive) | 18.4 µM (inactive) | 0.212 µM (active) | 5.21 µM (inactive) | 1.24 µM (inactive) | 9.84 µM (inactive) | 10.3 µM (inactive) | 0.128 µM (active) | 2.65 µM (inactive) | 2.07 µM (inactive) | 4.38 µM (inactive) |
| CC(O)c1cc2c(s1)C(=O)c1scc(C(C)O)c1C2=O (stereo not given) | 1.69 µM (inactive) | 0.175 µM (active) | 0.172 µM (active) | 0.419 µM (active) | 1.37 µM (inactive) | 0.29 µM (active) | 0.753 µM (active) | 0.352 µM | 0.597 µM (active) | 0.28 µM (active) | 2 µM (inactive) | 0.19 µM (active) | 0.53 µM (active) | 0.67 µM (active) | 0.393 µM (active) | 0.286 µM (active) | 0.853 µM (active) | 0.628 µM (active) | 0.321 µM (active) | 0.176 µM (active) |
| Cc1ccc(S(=O)(=O)NC(=O)C2=C3SCCN3C(=O)N(S(=O)(=O)c3ccc(C)cc3)C2c2ccccc2)cc1 (stereo not given) | > 100 µM (inactive) | 22.9 µM (inactive) | 40.6 µM (inactive) | 39.3 µM (inactive) | 39.4 µM (inactive) | 43.4 µM (inactive) | 44.9 µM (inactive) | > 100 µM | 36.7 µM (inactive) | 32.3 µM (inactive) | > 100 µM (inactive) | 61 µM (inactive) | 49.9 µM (inactive) | > 100 µM (inactive) | 20 µM (inactive) | 77.1 µM (inactive) | > 100 µM (inactive) | 20.4 µM (inactive) | 47.3 µM (inactive) | 78.5 µM (inactive) |
| OC(CCN1CCN(CCOC(c2ccc(F)cc2)c2ccc(F)cc2)CC1)c1ccccc1 (stereo not given) | 15 µM (inactive) | 17.8 µM (inactive) | 13.4 µM (inactive) | 14.6 µM (inactive) | 14.5 µM (inactive) | 13.5 µM (inactive) | 12.1 µM (inactive) | 13.6 µM | 4.56 µM (inactive) | 16.9 µM (inactive) | 15 µM (inactive) | 14.7 µM (inactive) | 15.2 µM (inactive) | 16.4 µM (inactive) | 15.3 µM (inactive) | 12.9 µM (inactive) | 12.9 µM (inactive) | 14.4 µM (inactive) | 22.8 µM (inactive) | 16.2 µM (inactive) |
| N#CC(Cl)CS(=O)(=O)c1ccccc1 (stereo not given) | 3.7 µM (inactive) | 17.1 µM (inactive) | 2.07 µM (inactive) | 19.3 µM (inactive) | 20.3 µM (inactive) | 15.2 µM (inactive) | 1.34 µM (inactive) | 2.14 µM | 1.97 µM (inactive) | 11 µM (inactive) | 22.1 µM (inactive) | 4.76 µM (inactive) | 16.5 µM (inactive) | 20.1 µM (inactive) | 2.71 µM (inactive) | 6.7 µM (inactive) | 4.41 µM (inactive) | 0.681 µM (active) | 1.68 µM (inactive) | 7.14 µM (inactive) |
